Values after ≈ are worked out from the molar mass of the structure shown. Active and inactive are the calls of the source. No cut-off for these calls is given here.
How the values were obtained:
[1] = tested on: Enterococcus faecium; assay: Antibacterial activity against Enterococcus faecium ET6 by broth microdilution method; type: functional
[2] = tested on: Staphylococcus aureus; assay: Antibacterial activity against methicillin-resistant Staphylococcus aureus SA11 by broth microdilution method; type: functional
[3] = tested on: Staphylococcus aureus; assay: Antibacterial activity against Staphylococcus aureus ATCC 29213 by broth microdilution method; type: functional
[4] = tested on: Staphylococcus aureus; assay: Antibacterial activity against methicillin-resistant Staphylococcus aureus SA14 by broth microdilution method; type: functional
[5] = tested on: Staphylococcus aureus; assay: Antibacterial activity against methicillin-resistant Staphylococcus aureus SA86 by broth microdilution method; type: functional
[6] = tested on: Staphylococcus aureus; assay: Antibacterial activity against methicillin-resistant Staphylococcus aureus SA88 by broth microdilution method; type: functional
[7] = tested on: Enterococcus faecalis; assay: Antibacterial activity against Enterococcus faecalis ATCC 29212 by broth microdilution method; type: functional
[8] = tested on: Enterococcus faecium; assay: Antibacterial activity against Enterococcus faecium ET60 by broth microdilution method; type: functional
[9] = Aqueous solubility of the compound in 0.9% NaCl at >= 100 measured after 15 mins; type: physicochemical; conditions: buffer, 0.25 h
[10] = tested on: HEK293; assay: Cytotoxicity against HEK293 cells assessed as reduction in cell viability at 40 mg/ml measured after 24 hrs by MTT assay; type: cell-based; conditions: human, hek293, 24 h
[11] = tested on: HEK293; assay: Cytotoxicity against HEK293 cells assessed as reduction in cell viability at 80 mg/ml measured after 24 hrs by MTT assay; type: cell-based; conditions: human, hek293, 24 h
[12] = tested on: Erythrocyte; assay: Hemolytic activity against rat RBC at 320 ug/ml measured after 1 hr; type: ADME, cell-based
[13] = tested on: Staphylococcus aureus; assay: Antibacterial activity against methicillin-resistant Staphylococcus aureus ATCC 43300 infected in Galleria mellonella larvae assessed as increase in larvae survival at 50 mg/kg measured up to 72 hrs post-infection; type: functional, organism-based
[14] = tested on: Staphylococcus aureus; assay: Antibacterial activity against Staphylococcus aureus USA300 infected in Balb/c mouse model of sepsis assessed as bacterial eradication in kidney at 1.25 mg/kg, sc administered twice daily for 3 days starting from 1 hr post-infection followed by subculturing on LB agar plate and measured after overnight incubation; type: functional, organism-based
[15] = tested on: Staphylococcus aureus; assay: Antibacterial activity against daptomycin-resistant Staphylococcus aureus SA11 infected in NIH mouse model of neutropenic thigh infection assessed reduction in bacterial level in thigh at 50 mg/kg, sc administered at 2 and 12 hrs post infection and measured at 48 to 60 hrs post-infection; type: functional, organism-based
[16] = tested on: Enterococcus faecalis; assay: Induction of cell membrane integrity disruption in Enterococcus faecalis ATCC 29212 at 16 ug/ml measured after 1 hr by SYTOX green staining based confocal laser scanning microscopic analysis; type: organism-based
[17] = tested on: Staphylococcus aureus; assay: Bactericidal activity against Staphylococcus aureus ATCC 29213 assessed as reduction in bacterial load at 4 to 8 ug/ml preincubated for up to 24 hrs followed by subculturing on LB agar plate by time-kill assay; type: functional, organism-based
[18] = tested on: Staphylococcus aureus; assay: Induction of cell membrane integrity disruption in Staphylococcus aureus ATCC 29213 at 8 ug/ml measured after 0.5 to 2 hrs by SYTOX green staining based fluorescence assay; type: organism-based
[19] = tested on: Enterococcus faecalis; assay: Antibacterial activity against daptomycin-resistant Enterococcus faecalis T1027 infected in NIH mouse model of neutropenic thigh infection assessed reduction in bacterial level in thigh at 50 mg/kg, sc administered at 2 and 12 hrs post infection and measured at 48 to 60 hrs post-infection; type: functional, organism-based
[20] = tested on: Enterococcus faecalis; assay: Bactericidal activity against Enterococcus faecalis ATCC 29212 assessed as reduction in bacterial load at 4 to 16 ug/ml preincubated for up to 24 hrs followed by subculturing on LB agar plate by time-kill assay; type: functional, organism-based
[21] = tested on: Enterococcus faecalis; assay: Antibacterial activity against Enterococcus faecalis ATCC 29212 at sub-MIC after 7 serial passages by broth microdilution method; type: functional, organism-based
[22] = tested on: Staphylococcus aureus; assay: Bactericidal activity against Staphylococcus aureus ATCC 29213 assessed as reduction in bacterial load at 16 ug/ml preincubated for 24 hrs followed by subculturing on LB agar plate by time-kill assay; type: functional, organism-based
[23] = tested on: Enterococcus faecalis; assay: Induction of cell membrane integrity disruption in Enterococcus faecalis ATCC 29212 at 8 to 32 ug/ml measured after 0.5 to 2 hrs by SYTOX green staining based fluorescence assay; type: organism-based
[24] = tested on: Staphylococcus aureus; assay: Antibacterial activity against Staphylococcus aureus ATCC 29213 at sub-MIC after 7 serial passages by broth microdilution method; type: functional, organism-based
[25] = tested on: Staphylococcus aureus; assay: Antibacterial activity against daptomycin-resistant Staphylococcus aureus SA11 infected in Galleria mellonella larvae assessed as increase in larvae survival at 50 mg/kg measured up to 72 hrs post-infection; type: functional, organism-based
[26] = tested on: Enterococcus faecalis; assay: Antibacterial activity against Enterococcus faecalis T1027 infected in Galleria mellonella larvae assessed as increase in larvae survival at 50 mg/kg measured 96 hrs post-infection; type: functional, organism-based
[27] = tested on: Enterococcus faecalis; assay: Antibacterial activity against Enterococcus faecalis ZS129 infected in Galleria mellonella larvae assessed as increase in larvae survival at 50 mg/kg measured up to 72 hrs post-infection; type: functional, organism-based
[28] = tested on: Enterococcus faecalis; assay: Induction of cell membrane integrity disruption in Enterococcus faecalis ATCC 29212 at 16 ug/ml measured after 0.5 to 2 hrs by SYTOX green staining based fluorescence assay; type: organism-based
[29] = tested on: Enterococcus faecalis; assay: Bactericidal activity against Enterococcus faecalis ATCC 29212 assessed as reduction in bacterial load at 16 ug/ml preincubated for up to 24 hrs followed by subculturing on LB agar plate by time-kill assay; type: functional, organism-based

With `CCCCCCCCCC(=O)N[C@@H](Cc1cn(C)c2ccccc12)C(=O)N[C@@H](CC(N)=O)C(=O)N[C@@H](CC(=O)O)C(=O)N[C@@H]1C(=O)NCC(=O)N[C@@H](CCCN)C(=O)N[C@@H](CC(=O)O)C(=O)N[C@H](C)C(=O)N[C@@H](CC(=O)O)C(=O)NCC(=O)N[C@H](CO)C(=O)N[C@@H]([C@H](C)CC(=O)O)C(=O)N[C@@H](CC(=O)c2ccccc2N)C(=O)O[C@@H]1C` the MIC [1] was 1 µg/mL (≈ 0.612 µM), the MIC [2] was 2 µg/mL (≈ 1.22 µM) and the MIC [3] was 0.5 µg/mL (≈ 0.306 µM). It also gave an MIC [4] of 0.5 µg/mL (≈ 0.306 µM), an MIC [5] of 0.5 µg/mL (≈ 0.306 µM) and an MIC [6] of 0.25 µg/mL (≈ 0.153 µM). It also gave an MIC [7] of 2 µg/mL (≈ 1.22 µM) and an MIC [8] of 1 µg/mL (≈ 0.612 µM).
In the case of `CCCCCCCCCC(=O)N[C@@H](Cc1c[nH]c2ccccc12)C(=O)N[C@H](CC(N)=O)C(=O)N[C@@H](CC(=O)O)C(=O)N[C@@H]1C(=O)NCC(=O)N[C@@H](CCCN)C(=O)N[C@@H](CC(=O)O)C(=O)N[C@H](C)C(=O)N[C@@H](CC(=O)O)C(=O)NCC(=O)N[C@H](CO)C(=O)N[C@@H]([C@H](C)CC(=O)O)C(=O)N[C@@H](CC(=O)c2ccccc2NC)C(=O)O[C@@H]1C`, the solubility [9] is reported as “Soluble”, the Activity [10] is reported as “Non-Toxic” and the Activity [11] is reported as “Toxic”. For the same molecule, the Activity [12] was “Non-Toxic”.
For `CCCCCCCCCC(=O)N[C@@H](Cc1c[nH]c2ccccc12)C(=O)N[C@@H](CC(N)=O)C(=O)N[C@@H](CC(=O)O)C(=O)N[C@@H]1C(=O)NCC(=O)N[C@@H](CCCN)C(=O)N[C@@H](CC(=O)O)C(=O)N[C@H](C)C(=O)N[C@@H](CC(=O)O)C(=O)NCC(=O)N[C@H](CO)C(=O)N[C@@H]([C@H](C)CC(=O)O)C(=O)N[C@@H](CC(=O)c2ccccc2NC)C(=O)O[C@@H]1C`, the Activity [13] was “Active”, the Activity [14] was “Active” and the Activity [15] was “Active”. The Activity [16] was “Active”, the Activity [17] was “Active” and the Activity [18] was “Active”. The Activity [19] was “Active”, the Activity [20] was “Active” and the Activity [21] was “inactive”. The Activity [22] was “Active”, the Activity [23] was “Active” and the Activity [24] was “Active”. The Activity [25] was “Active”.
For `CCCCCCCCCC(=O)N[C@@H](Cc1c[nH]c2ccccc12)C(=O)N[C@@H](CC(N)=O)C(=O)N[C@@H](CC(=O)O)C(=O)N[C@@H]1C(=O)NCC(=O)N[C@@H](CCCN)C(=O)N[C@H](CC(=O)O)C(=O)N[C@H](C)C(=O)N[C@@H](CC(=O)O)C(=O)NCC(=O)N[C@H](CO)C(=O)N[C@@H]([C@@H](C)CC(=O)O)C(=O)N[C@@H](CC(=O)c2ccccc2N)C(=O)O[C@@H]1C`, the Activity [26] was “Active”, the Activity [13] was “Active” and the Activity [14] was “inactive”. The Activity [15] was “Active”, the Activity [16] was “Active” and the Activity [17] was “Active”. For the same molecule, the Activity [18] was “Active”, the Activity [19] was “Active” and the Activity [27] was “Active”. The Activity [21] was “inactive”, the Activity [25] was “Active” and the Activity [28] was “Active”. For the same molecule, the Activity [29] was “Active”.

Reference: ChEMBL document CHEMBL4402571, “Methylation of Daptomycin Leading to the Discovery of Kynomycin, a Cyclic Lipodepsipeptide Active against Resistant Pathogens” (J Med Chem, 2020)
